From patent US9611278B2 (Merck Sharp & Dohme Corp., priority 2013, dated 2017)
pEC50: −log10 of the molar value.

Target: T1, sGC α1/β1 heterodimer stably expressed in CHO-K1 cells (CHO-K1/sGC) (Homo sapiens, UniProt Q02108+Q02153)
T1 construct: expressed in transfected cells
T1 sequence (Q02108 1-690): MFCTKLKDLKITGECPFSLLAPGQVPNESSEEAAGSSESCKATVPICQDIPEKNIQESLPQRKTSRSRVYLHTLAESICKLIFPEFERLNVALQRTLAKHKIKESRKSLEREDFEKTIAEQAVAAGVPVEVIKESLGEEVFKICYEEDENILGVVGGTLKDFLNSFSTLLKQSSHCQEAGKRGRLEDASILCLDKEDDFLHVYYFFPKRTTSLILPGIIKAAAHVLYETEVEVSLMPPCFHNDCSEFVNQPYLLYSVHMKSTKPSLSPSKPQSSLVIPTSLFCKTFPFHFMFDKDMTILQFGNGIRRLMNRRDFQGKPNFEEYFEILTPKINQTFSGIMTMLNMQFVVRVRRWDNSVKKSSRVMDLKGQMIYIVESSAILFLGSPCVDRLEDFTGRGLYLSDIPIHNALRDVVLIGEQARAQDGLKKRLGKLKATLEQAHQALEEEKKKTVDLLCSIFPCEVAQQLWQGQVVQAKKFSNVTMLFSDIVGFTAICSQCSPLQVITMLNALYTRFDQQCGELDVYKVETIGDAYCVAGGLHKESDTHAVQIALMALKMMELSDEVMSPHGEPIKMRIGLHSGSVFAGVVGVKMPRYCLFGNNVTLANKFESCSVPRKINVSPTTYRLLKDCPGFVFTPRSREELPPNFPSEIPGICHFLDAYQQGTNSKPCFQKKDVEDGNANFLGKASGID
T1 sequence (Q02153 1-619): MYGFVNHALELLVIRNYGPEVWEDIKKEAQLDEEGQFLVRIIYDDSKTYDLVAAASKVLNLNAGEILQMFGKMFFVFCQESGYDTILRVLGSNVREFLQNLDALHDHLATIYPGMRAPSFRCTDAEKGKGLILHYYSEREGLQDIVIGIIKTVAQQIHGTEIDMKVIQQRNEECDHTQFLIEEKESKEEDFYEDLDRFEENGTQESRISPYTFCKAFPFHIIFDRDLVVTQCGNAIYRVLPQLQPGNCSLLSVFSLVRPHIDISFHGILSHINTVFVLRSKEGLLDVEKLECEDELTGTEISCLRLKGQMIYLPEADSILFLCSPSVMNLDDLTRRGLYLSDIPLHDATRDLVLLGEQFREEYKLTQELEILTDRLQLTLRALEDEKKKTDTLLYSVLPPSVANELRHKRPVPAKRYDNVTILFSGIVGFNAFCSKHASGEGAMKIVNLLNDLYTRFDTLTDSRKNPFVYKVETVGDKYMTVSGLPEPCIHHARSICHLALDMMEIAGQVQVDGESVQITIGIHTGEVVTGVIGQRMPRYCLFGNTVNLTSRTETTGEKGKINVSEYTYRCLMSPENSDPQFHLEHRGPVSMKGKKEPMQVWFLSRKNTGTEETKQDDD
Assay: Cell-based sGC Functional Assay (CASA Assay)
Settings: for % Act.: activation as percentage of maximum cGMP production of Compound A (set to 100%); for pEC50: inflection point of cGMP generation in CHO-K1/sGC cells, 4P fit, 1 hr at 37° C., read-out: IP; for Emax: CHO-K1, activation as percentage of maximum cGMP production of Compound A (set to 100%), read-out: % Act.
From the text: sGC is a heme-containing enzyme that converts GTP to secondary messenger cGMP. Increases in cGMP levels affect several physiological processes including vasorelaxation through multiple downstream pathways. […] Heme-dependent activators (HDAs) preferentially activate sGC containing a ferrous heme group. To determine the effect of sGC activators on enzyme activity, the CASA assay was developed to monitor the generation of cGMP in a cell line that stably expresses the heterodimeric sGC protein.
A CHO-K1 cell line stably expressing the sGC α1/β1 heterodimer was generated using a standard transfection protocol. CHO-K1 cells were transfected with plasmids pIREShyghsGCα1 and pIRESneo-hsGCβ1 simultaneously using FUGENE reagent. Clones that stably express both subunits were selected with hygromycin and neomycin for ˜2 weeks. Clone #7 was chosen for the assay and was designated CHO-K1/sGC. CHO-K1/sGC cells were maintained in F-K12 medium containing 10% heat-inactivated Fetal Bovine Serum (FBS), 100 μg/mL penicillin/streptomycin, 0.5 mg/mL hygromycin and 0.25 mg/mL G418. The cells were then cryopreserved in LN2. On the day of the assay, cells thawed and resuspended in EBSS Assay Buffer (EAB, Sigma, E3024) supplemented with 5 mM MgCl2, 10 mM HEPES (4-(2-hydroxyethyl)piperazine-1-ethanesulfonic acid) and 0.05% BSA (bovine serum albumin) and cell density was then adjusted to 4×10^5/mL with EAB. IBMX (3-isobutyl-1-methylxanthin, 0.5 mM) was added to inhibit degradation of cGMP. Compounds were diluted from DMSO stock solutions and added to the assay at a final DMSO concentration of 2.5%. Cells were incubated with compounds in the presence and absence of 1 μM of Diethylenetriamine/nitric oxide adduct (DETA-NO; Sigma, 17018) for 1 hr at 37° C. At the end of the incubation period, the reaction was terminated and the cells were lysed with the detection reagents from Cisbio Kits. The level of intracellular cGMP was determined using an HTRF-based assay kit (CisBio, 62GM2PEC), which detects the displacement of a fluorescence labeled cGMP from its specific antibody. The cGMP produced by test compounds was directly compared to the maximum cGMP production (this value was set to equal 100% activation.) of the published sGC-HDA Compound A:
(Example 1 in WO 2010/065275, published Jun. 10, 2010). The test compounds' activity were then expressed as a percentage of Compound A, the standard in every experiment. This percent activation was calculated either in the presence or absence of DETA-NO which was then plotted. IP and maximum fold induction was derived using ADA analysis software for 4P fit.

| % Act. [%] | pEC50 | Emax [%] | Compound |
| --- | --- | --- | --- |
| 148 | 7.05 |  | 4-Amino-5-cyclopropyl-2-(6-((3,3-difluorocyclobutyl)methyl)-1-methyl-1H-pyrazolo[3,4-d]pyrimidin-4-yl)-5-(5-ethyl-1,3,4-oxadiazol-2-yl)-5,7-dihydro-6H-pyrrolo[2,3-d]pyrimidin-6-one [Example 52] |
| 117 | 6.38 |  | 4-Amino-5-ethyl-2-(1-methyl-6-(3,3,4,4,4-pentafluorobutyl)-1H-pyrazolo[3,4-d]pyrimidin-4-yl)-5-(1-propyl-1H-1,2,3-triazol-4-yl)-5,7-dihydro-6H-pyrrolo[2,3-d]pyrimidin-6-one [Example 73] |
|  | 7.37 | 116 | CCCCc1nc(-c2nc(N)c3c(n2)NC(=O)C3(C)c2ccc(OC)cn2)c2cnn(C)c2n1 (single isomer, unassigned) [Example 36, 4-Amino-2-(6-butyl-1-methyl-1H-pyrazolo[3,4-d]pyrimidin-4-yl)-5-(5-methoxypyridin-2-yl)-5-methyl-5,7-dihydro-6H-pyrrolo[2,3-d]pyrimidin-6-one] |
| 89 | 6.43 |  | [2H]C([2H])([2H])n1ncc2c(-c3nc(N)c4c(n3)NC(=O)C4(c3nnc(C)o3)C3CC3)nc(CCC(F)(F)C(F)(F)F)nc21 (single isomer, unassigned) [Example 40A, 4-Amino-5-cyclopropyl-5-(5-methyl-1,3,4-oxadiazol-2-yl)-2-(1-(methyl-d3)-6-(3,3,4,4,4-pentafluorobutyl)-1H-pyrazolo[3,4-d]pyrimidin-4-yl)-5,7-dihydro-6H-pyrrolo[2,3-d]pyrimidin-6-one] |
| 68 | 6.53 |  | [2H]C([2H])([2H])n1ncc2c(-c3nc(N)c4c(n3)NC(=O)C4(c3nnc(C)o3)C3CC3)nc(CCC(F)(F)C(F)(F)F)nc21 (single isomer, unassigned) [Example 40B, 4-Amino-5-cyclopropyl-5-(5-methyl-1,3,4-oxadiazol-2-yl)-2-(1-(methyl-d3)-6-(3,3,4,4,4-pentafluorobutyl)-1H-pyrazolo[3,4-d]pyrimidin-4-yl)-5,7-dihydro-6H-pyrrolo[2,3-d]pyrimidin-6-one] |
|  | 6.83 | 125 | [2H]C([2H])([2H])n1ncc2c(-c3nc(N)c4c(n3)NC(=O)C4(C)c3cn(C(C)C)nn3)nc(CCC(F)(F)C(F)(F)F)nc21 (single isomer, unassigned) [Example 57, 4-Amino-5-(1-isopropyl-1H-1,2,3-triazol-4-yl)-5-methyl-2-(1-(methyl-d3)-6-(3,3,4,4,4-pentafluorobutyl)-1H-pyrazolo[3,4-d]pyrimidin-4-yl)-5,7-dihydro-6H-pyrrolo[2,3-d]pyrimidin-6-one] |
|  | 6.15 | 105 | CCC1(c2cn(C)nn2)C(=O)Nc2nc(-c3nc(CCC(F)(F)C(F)(F)F)nc4c3cnn4C)nc(N)c21 (single isomer, unassigned) [Example 58, 4-Amino-5-ethyl-5-(1-methyl-1H-1,2,3-triazol-4-yl)-2-(1-methyl-6-(3,3,4,4,4-pentafluorobutyl)-1H-pyrazolo[3,4-d]pyrimidin-4-yl)-5,7-dihydro-6H-pyrrolo[2,3-d]pyrimidin-6-one] |
|  | 6.03 | 136 | Cn1ncc2c(-c3nc(N)c4c(n3)NC(=O)C4(C)c3c[nH]nn3)nc(CCC(F)(F)C(F)(F)F)nc21 (single isomer, unassigned) [Example 60, 4-Amino-S-methyl-2-(1-methyl-6-(3,3,4,4,4-pentafluorobutyl)-1H-pyrazolo[3,4-d]pyrimidin-4-yl)-5-(1H-1,2,3-triazol-4-yl)-5,7-dihydro-6H-pyrrolo[2,3-d]pyrimidin-6-one] |
|  | 6.10 | 99 | Cn1cc(C2(C3CC3)C(=O)Nc3nc(-c4nc(CCCC(F)(F)F)nc5c4cnn5C)nc(N)c32)nn1 (single isomer, unassigned) [Example 62, 4-Amino-5-cyclopropyl-5-(1-methyl-1H-1,2,3-triazol-4-yl)-2-(1-methyl-6-(4,4,4-trifluorobutyl)-1H-pyrazolo[3,4-d]pyrimidin-4-yl)-5,7-dihydro-6H-pyrrolo[2,3-d]pyrimidin-6-one] |
|  | 6.09 | 133 | CCC1(c2cn(C(C)C)nn2)C(=O)Nc2nc(-c3nc(CCC(F)(F)C(F)(F)F)nc4c3cnn4C)nc(N)c21 (single isomer, unassigned) [Example 68, 4-Amino-5-ethyl-5-(1-isopropyl-1H-1,2,3-triazol-4-yl)-2-(1-methyl-6-(3,3,4,4,4-pentafluorobutyl)-1H-pyrazolo[3,4-d]pyrimidin-4-yl)-5,7-dihydro-6H-pyrrolo[2,3-d]pyrimidin-6-one] |
|  | 6.66 | 169 | CCCn1cc(C2(C)C(=O)Nc3nc(-c4nc(CCC(F)(F)C(F)(F)F)nc5c4cnn5C)nc(N)c32)nn1 (single isomer, unassigned) [Example 71, 4-Amino-5-methyl-2-(1-methyl-6-(3,3,4,4,4-pentafluorobutyl)-1H-pyrazolo[3,4-d]pyrimidin-4-yl)-5-(1-propyl-1H-1,2,3-triazol-4-yl)-5,7-dihydro-6H-pyrrolo[2,3-d]pyrimidin-6-one] |
|  | 6.30 | 121 | CCCn1cc(C2(CC)C(=O)Nc3nc(-c4nc(CCC(F)(F)C(F)(F)F)nc5c4cnn5C)nc(N)c32)nn1 (single isomer, unassigned) [Example 72, 4-Amino-5-ethyl-2-(1-methyl-6-(3,3,4,4,4-pentafluorobutyl)-1H-pyrazolo[3,4-d]pyrimidin-4-yl)-5-(1-propyl-1H-1,2,3-triazol-4-yl)-5,7-dihydro-6H-pyrrolo[2,3-d]pyrimidin-6-one] |

| Compound | % Act. [%] | pEC50 | Emax [%] |
| --- | --- | --- | --- |
| 4-Amino-5-methyl-5-(5-methyl-1,3,4-thiadiazol-2-yl)-2-(1-methyl-6-(3,3,4,4,4-pentafluorobutyl)-1H-pyrazolo[3,4-d]pyrimidin-4-yl)-5,7-dihydro-6H-pyrrolo[2,3-d]pyrimidin-6-one [Example 27] | 89 | 6.68 |  |
